Literature values, collected in US20210228671A1, “EXTRACT OF VEGETATION WATERS FOR USE IN THE TREATMENT AND/OR IN THE PREVENTION OF PROSTATE CANCER” (FATTORIA LA VIALLA DI GIANNI, ANTONIO E BANDINO LO FRANCO - …, priority 2018, published 2021).

Details: high concentrations, up to 250-500 mg/kg/day

OCCc1ccc(O)c(O)c1 [hydroxytyrosol]
toxic effect of in vivo administration: does not exert any toxic effect
